Experimental data: ChEMBL document CHEMBL4627246, “Pyroglutamide-Based P2X7 Receptor Antagonists Targeting Inflammatory Bowel Disease” (J Med Chem, 2020)

The compounds below were run on T47D (assay: Cytotoxicity against human T47D cells assessed as effect on cell growth at 10 uM incubated for 48 hrs by sulforhodamine B assay). Details: not given.
Type: cell-based
In the case of `CN1C(=O)C(C)(C)C[C@H]1C(=O)NCc1cccc(C(F)(F)F)c1Cl`, the Activity is reported as “Non-Toxic”. In the case of `O=C(NCc1ccc(Cl)cc1Cl)[C@@H]1CCC(=O)N1Cc1ccccc1`, the Activity is reported as “Non-Toxic”. For `COc1ccc(N2C(=O)CC[C@H]2C(=O)NCc2ccc(Cl)cc2Cl)cc1`, the Activity was “Non-Toxic”.

The compounds below were run on SNB-75 (assay: Cytotoxicity against human SNB75 cells assessed as effect on cell growth at 10 uM incubated for 48 hrs by sulforhodamine B assay). Details: snb-75, 48 h.
Type: cell-based
In the case of `CN1C(=O)C(C)(C)C[C@H]1C(=O)NCc1cccc(C(F)(F)F)c1Cl`, the Activity is reported as “Non-Toxic”. With `O=C(NCc1ccc(Cl)cc1Cl)[C@@H]1CCC(=O)N1Cc1ccccc1` the Activity was “Non-Toxic”. `COc1ccc(N2C(=O)CC[C@H]2C(=O)NCc2ccc(Cl)cc2Cl)cc1` was tested, and the Activity was “Non-Toxic”.

What follows are compounds tested on NCI-H322M (assay: Cytotoxicity against human NCI-H322M cells assessed as effect on cell growth at 10 uM incubated for 48 hrs by sulforhodamine B assay). Details: not given.
Type: cell-based
`CN1C(=O)C(C)(C)C[C@H]1C(=O)NCc1cccc(C(F)(F)F)c1Cl` was tested, and the Activity was “Non-Toxic”. With `O=C(NCc1ccc(Cl)cc1Cl)[C@@H]1CCC(=O)N1Cc1ccccc1` the Activity was “Non-Toxic”. In the case of `COc1ccc(N2C(=O)CC[C@H]2C(=O)NCc2ccc(Cl)cc2Cl)cc1`, the Activity is reported as “Non-Toxic”.

Each compound was assayed on IGROV-1 (assay: Cytotoxicity against human IGROV1 cells assessed as effect on cell growth at 10 uM incubated for 48 hrs by sulforhodamine B assay). Details: igrov-1, 48 h.
Type: cell-based
`CN1C(=O)C(C)(C)C[C@H]1C(=O)NCc1cccc(C(F)(F)F)c1Cl` was tested, and the Activity was “Non-Toxic”. `O=C(NCc1ccc(Cl)cc1Cl)[C@@H]1CCC(=O)N1Cc1ccccc1` was tested, and the Activity was “Non-Toxic”. `COc1ccc(N2C(=O)CC[C@H]2C(=O)NCc2ccc(Cl)cc2Cl)cc1` was tested, and the Activity was “Non-Toxic”.

Each compound was assayed on SNB-19 (assay: Cytotoxicity against human SNB19 cells assessed as effect on cell growth at 10 uM incubated for 48 hrs by sulforhodamine B assay). Details: snb-19, 48 h.
Type: cell-based
In the case of `CN1C(=O)C(C)(C)C[C@H]1C(=O)NCc1cccc(C(F)(F)F)c1Cl`, the Activity is reported as “Non-Toxic”. In the case of `O=C(NCc1ccc(Cl)cc1Cl)[C@@H]1CCC(=O)N1Cc1ccccc1`, the Activity is reported as “Non-Toxic”. For `COc1ccc(N2C(=O)CC[C@H]2C(=O)NCc2ccc(Cl)cc2Cl)cc1`, the Activity was “Non-Toxic”.

The compounds below were run on HCT-116 (assay: Cytotoxicity against human HCT116 cells assessed as effect on cell growth at 10 uM incubated for 48 hrs by sulforhodamine B assay). Details: hct-116, 48 h.
Type: cell-based
`CN1C(=O)C(C)(C)C[C@H]1C(=O)NCc1cccc(C(F)(F)F)c1Cl` was tested, and the Activity was “Non-Toxic”. In the case of `O=C(NCc1ccc(Cl)cc1Cl)[C@@H]1CCC(=O)N1Cc1ccccc1`, the Activity is reported as “Non-Toxic”. With `COc1ccc(N2C(=O)CC[C@H]2C(=O)NCc2ccc(Cl)cc2Cl)cc1` the Activity was “Non-Toxic”.

Each compound was assayed on U-251 (assay: Cytotoxicity against human U251 cells assessed as effect on cell growth at 10 uM incubated for 48 hrs by sulforhodamine B assay). Details: u-251, 48 h.
Type: cell-based
For `CN1C(=O)C(C)(C)C[C@H]1C(=O)NCc1cccc(C(F)(F)F)c1Cl`, the Activity was “Non-Toxic”. With `O=C(NCc1ccc(Cl)cc1Cl)[C@@H]1CCC(=O)N1Cc1ccccc1` the Activity was “Non-Toxic”. `COc1ccc(N2C(=O)CC[C@H]2C(=O)NCc2ccc(Cl)cc2Cl)cc1` was tested, and the Activity was “Non-Toxic”.

The compounds below were run on HCC 2998 (assay: Cytotoxicity against human HCC2998 cells assessed as effect on cell growth at 10 uM incubated for 48 hrs by sulforhodamine B assay). Details: hcc 2998, 48 h.
Type: cell-based
With `CN1C(=O)C(C)(C)C[C@H]1C(=O)NCc1cccc(C(F)(F)F)c1Cl` the Activity was “Non-Toxic”. `O=C(NCc1ccc(Cl)cc1Cl)[C@@H]1CCC(=O)N1Cc1ccccc1` was tested, and the Activity was “Non-Toxic”. With `COc1ccc(N2C(=O)CC[C@H]2C(=O)NCc2ccc(Cl)cc2Cl)cc1` the Activity was “Non-Toxic”.

What follows are compounds tested on TK-10 (assay: Cytotoxicity against human TK10 cells assessed as effect on cell growth at 10 uM incubated for 48 hrs by sulforhodamine B assay). Details: tk-10, 48 h.
Type: cell-based
`CN1C(=O)C(C)(C)C[C@H]1C(=O)NCc1cccc(C(F)(F)F)c1Cl` was tested, and the Activity was “Non-Toxic”. For `O=C(NCc1ccc(Cl)cc1Cl)[C@@H]1CCC(=O)N1Cc1ccccc1`, the Activity was “Non-Toxic”. In the case of `COc1ccc(N2C(=O)CC[C@H]2C(=O)NCc2ccc(Cl)cc2Cl)cc1`, the Activity is reported as “Non-Toxic”.

These compounds were tested on HT-29 (assay: Cytotoxicity against human HT-29 cells assessed as effect on cell growth at 10 uM incubated for 48 hrs by sulforhodamine B assay). Details: ht-29, 48 h.
Type: cell-based
For `CN1C(=O)C(C)(C)C[C@H]1C(=O)NCc1cccc(C(F)(F)F)c1Cl`, the Activity was “Non-Toxic”. In the case of `O=C(NCc1ccc(Cl)cc1Cl)[C@@H]1CCC(=O)N1Cc1ccccc1`, the Activity is reported as “Non-Toxic”. `COc1ccc(N2C(=O)CC[C@H]2C(=O)NCc2ccc(Cl)cc2Cl)cc1` was tested, and the Activity was “Non-Toxic”.

What follows are compounds tested on HOP-92 (assay: Cytotoxicity against human HOP92 cells assessed as effect on cell growth at 10 uM incubated for 48 hrs by sulforhodamine B assay). Details: hop-92, 48 h.
Type: cell-based
In the case of `CN1C(=O)C(C)(C)C[C@H]1C(=O)NCc1cccc(C(F)(F)F)c1Cl`, the Activity is reported as “Non-Toxic”. With `O=C(NCc1ccc(Cl)cc1Cl)[C@@H]1CCC(=O)N1Cc1ccccc1` the Activity was “Non-Toxic”. With `COc1ccc(N2C(=O)CC[C@H]2C(=O)NCc2ccc(Cl)cc2Cl)cc1` the Activity was “Non-Toxic”.

What follows are compounds tested on NCI-H522 (assay: Cytotoxicity against human NCI-H522 cells assessed as effect on cell growth at 10 uM incubated for 48 hrs by sulforhodamine B assay). Details: nci-h522, 48 h.
Type: cell-based
With `CN1C(=O)C(C)(C)C[C@H]1C(=O)NCc1cccc(C(F)(F)F)c1Cl` the Activity was “Non-Toxic”. In the case of `O=C(NCc1ccc(Cl)cc1Cl)[C@@H]1CCC(=O)N1Cc1ccccc1`, the Activity is reported as “Non-Toxic”. With `COc1ccc(N2C(=O)CC[C@H]2C(=O)NCc2ccc(Cl)cc2Cl)cc1` the Activity was “Non-Toxic”.

These compounds were tested on Malme-3M (assay: Cytotoxicity against human MALME-3M cells assessed as effect on cell growth at 10 uM incubated for 48 hrs by sulforhodamine B assay). Details: not given.
Type: cell-based
In the case of `CN1C(=O)C(C)(C)C[C@H]1C(=O)NCc1cccc(C(F)(F)F)c1Cl`, the Activity is reported as “Non-Toxic”. In the case of `O=C(NCc1ccc(Cl)cc1Cl)[C@@H]1CCC(=O)N1Cc1ccccc1`, the Activity is reported as “Non-Toxic”. In the case of `COc1ccc(N2C(=O)CC[C@H]2C(=O)NCc2ccc(Cl)cc2Cl)cc1`, the Activity is reported as “Non-Toxic”.

The compounds below were run on UACC-62 (assay: Cytotoxicity against human UACC62 cells assessed as effect on cell growth at 10 uM incubated for 48 hrs by sulforhodamine B assay). Details: uacc-62, 48 h.
Type: cell-based
For `CN1C(=O)C(C)(C)C[C@H]1C(=O)NCc1cccc(C(F)(F)F)c1Cl`, the Activity was “Non-Toxic”. For `O=C(NCc1ccc(Cl)cc1Cl)[C@@H]1CCC(=O)N1Cc1ccccc1`, the Activity was “Non-Toxic”. `COc1ccc(N2C(=O)CC[C@H]2C(=O)NCc2ccc(Cl)cc2Cl)cc1` was tested, and the Activity was “Non-Toxic”.

These compounds were tested on MDA-MB-468 (assay: Cytotoxicity against human MDA-MB-468 cells assessed as effect on cell growth at 10 uM incubated for 48 hrs by sulforhodamine B assay). Details: mda-mb-468, 48 h.
Type: cell-based
For `CN1C(=O)C(C)(C)C[C@H]1C(=O)NCc1cccc(C(F)(F)F)c1Cl`, the Activity was “Non-Toxic”. In the case of `O=C(NCc1ccc(Cl)cc1Cl)[C@@H]1CCC(=O)N1Cc1ccccc1`, the Activity is reported as “Non-Toxic”. `COc1ccc(N2C(=O)CC[C@H]2C(=O)NCc2ccc(Cl)cc2Cl)cc1` was tested, and the Activity was “Non-Toxic”.

The compounds below were run on COLO 205 (assay: Cytotoxicity against human COLO205 cells assessed as effect on cell growth at 10 uM incubated for 48 hrs by sulforhodamine B assay). Details: colo 205, 48 h.
Type: cell-based
For `CN1C(=O)C(C)(C)C[C@H]1C(=O)NCc1cccc(C(F)(F)F)c1Cl`, the Activity was “Non-Toxic”. In the case of `O=C(NCc1ccc(Cl)cc1Cl)[C@@H]1CCC(=O)N1Cc1ccccc1`, the Activity is reported as “Non-Toxic”. For `COc1ccc(N2C(=O)CC[C@H]2C(=O)NCc2ccc(Cl)cc2Cl)cc1`, the Activity was “Non-Toxic”.

Each compound was assayed on PC-3 (assay: Cytotoxicity against human PC3 cells assessed as effect on cell growth at 10 uM incubated for 48 hrs by sulforhodamine B assay). Details: pc-3, 48 h.
Type: cell-based
For `CN1C(=O)C(C)(C)C[C@H]1C(=O)NCc1cccc(C(F)(F)F)c1Cl`, the Activity was “Non-Toxic”. `O=C(NCc1ccc(Cl)cc1Cl)[C@@H]1CCC(=O)N1Cc1ccccc1` was tested, and the Activity was “Non-Toxic”. For `COc1ccc(N2C(=O)CC[C@H]2C(=O)NCc2ccc(Cl)cc2Cl)cc1`, the Activity was “Non-Toxic”.

The compounds below were run on NCI-H23 (assay: Cytotoxicity against human NCI-H23 cells assessed as effect on cell growth at 10 uM incubated for 48 hrs by sulforhodamine B assay). Details: nci-h23, 48 h.
Type: cell-based
In the case of `CN1C(=O)C(C)(C)C[C@H]1C(=O)NCc1cccc(C(F)(F)F)c1Cl`, the Activity is reported as “Non-Toxic”. For `O=C(NCc1ccc(Cl)cc1Cl)[C@@H]1CCC(=O)N1Cc1ccccc1`, the Activity was “Non-Toxic”. In the case of `COc1ccc(N2C(=O)CC[C@H]2C(=O)NCc2ccc(Cl)cc2Cl)cc1`, the Activity is reported as “Non-Toxic”.

Each compound was assayed on NCI/ADR-RES (assay: Cytotoxicity against human NCI/ADR-RES cells assessed as effect on cell growth at 10 uM incubated for 48 hrs by sulforhodamine B assay). Details: not given.
Type: cell-based
`CN1C(=O)C(C)(C)C[C@H]1C(=O)NCc1cccc(C(F)(F)F)c1Cl` was tested, and the Activity was “Non-Toxic”. For `O=C(NCc1ccc(Cl)cc1Cl)[C@@H]1CCC(=O)N1Cc1ccccc1`, the Activity was “Non-Toxic”. `COc1ccc(N2C(=O)CC[C@H]2C(=O)NCc2ccc(Cl)cc2Cl)cc1` was tested, and the Activity was “Non-Toxic”.

These compounds were tested on OVCAR-8 (assay: Cytotoxicity against human OVCAR8 cells assessed as effect on cell growth at 10 uM incubated for 48 hrs by sulforhodamine B assay). Details: ovcar-8, 48 h.
Type: cell-based
With `CN1C(=O)C(C)(C)C[C@H]1C(=O)NCc1cccc(C(F)(F)F)c1Cl` the Activity was “Non-Toxic”. In the case of `O=C(NCc1ccc(Cl)cc1Cl)[C@@H]1CCC(=O)N1Cc1ccccc1`, the Activity is reported as “Non-Toxic”. `COc1ccc(N2C(=O)CC[C@H]2C(=O)NCc2ccc(Cl)cc2Cl)cc1` was tested, and the Activity was “Non-Toxic”.
